Laboratory results reported in patent US12129234B1, “Crystalline salts of N-ethyl-(5-fluoro-1H-indol-3-yl)-N-methylethan-1-amine” (Gilgamesh Pharmaceuticals, Inc., priority 2023, dated 2024).

Assays:
[1] = Overnight humidity exposure at 30° C./90% relative humidity; type: physicochemical; conditions: 30° C./90% relative humidity (RH)
Method: (§1) Alternatively, after the oil is formed from the evaporation of the ethanol, acetone is added to the oil at a temperature effective to solubilize the oil, ranging from about 30° C. to about 60° C., such as 45° C., and then the resulting mixture is cooled to room temperature. A non-polar antisolvent, such as n-heptane is added to the solution with stirring to form a slurry comprising N-ethyl-2-(5-fluoro-1H-indol-3-yl)-N-methylethan-1-amine monosuccinate, from which a crystalline solid comprising N-ethyl-2-(5-fluoro-1H-indol-3-yl)-N-methylethan-1-amine monosuccinate is crystallized, for example, by seeding, scratching, or aging. The solids are collected by filtration and dried under vacuum.

[2] = Stability of the solid upon drying under vacuum; type: physicochemical; conditions: solids collected by filtration and dried under vacuum
Method: as §1

Question: What does the source list for `CCN(C)CCc1c[nH]c2ccc(F)cc12.O=C(O)CCC(=O)O` [N-ethyl-2-(5-fluoro-1H-indol-3-yl)-N-methylethan-1-amine monosuccinate]?
Answer: behaviour after humidity exposure (deliquescence) [1]: deliquesces; stability upon drying [2]: stable upon drying
